As a reminder, the IC50 is the concentration needed to halve the response being measured. Higher therefore signals lower potency.

IC50 data for one molecule are collected here from PMC9532562 (Acta Pharmaceutica Sinica. B, 2022).

Among the targets are HDAC1 (Homo sapiens, UniProt Q13547); HDAC4 (Homo sapiens, UniProt P56524); HDAC9 (Homo sapiens, UniProt Q9UKV0); HDAC2 (Homo sapiens, UniProt Q92769); HDAC3 (Homo sapiens, UniProt O15379); HDAC5 (Homo sapiens, UniProt Q9UQL6).
Holding throughout (experiment): HDAC enzyme inhibition assay
Holding throughout (assay type): biochemical

For the next experiment, the target named is T1, HDAC6 (Homo sapiens, UniProt Q9UBN7).
T1 sequence (Q9UBN7 1-1215): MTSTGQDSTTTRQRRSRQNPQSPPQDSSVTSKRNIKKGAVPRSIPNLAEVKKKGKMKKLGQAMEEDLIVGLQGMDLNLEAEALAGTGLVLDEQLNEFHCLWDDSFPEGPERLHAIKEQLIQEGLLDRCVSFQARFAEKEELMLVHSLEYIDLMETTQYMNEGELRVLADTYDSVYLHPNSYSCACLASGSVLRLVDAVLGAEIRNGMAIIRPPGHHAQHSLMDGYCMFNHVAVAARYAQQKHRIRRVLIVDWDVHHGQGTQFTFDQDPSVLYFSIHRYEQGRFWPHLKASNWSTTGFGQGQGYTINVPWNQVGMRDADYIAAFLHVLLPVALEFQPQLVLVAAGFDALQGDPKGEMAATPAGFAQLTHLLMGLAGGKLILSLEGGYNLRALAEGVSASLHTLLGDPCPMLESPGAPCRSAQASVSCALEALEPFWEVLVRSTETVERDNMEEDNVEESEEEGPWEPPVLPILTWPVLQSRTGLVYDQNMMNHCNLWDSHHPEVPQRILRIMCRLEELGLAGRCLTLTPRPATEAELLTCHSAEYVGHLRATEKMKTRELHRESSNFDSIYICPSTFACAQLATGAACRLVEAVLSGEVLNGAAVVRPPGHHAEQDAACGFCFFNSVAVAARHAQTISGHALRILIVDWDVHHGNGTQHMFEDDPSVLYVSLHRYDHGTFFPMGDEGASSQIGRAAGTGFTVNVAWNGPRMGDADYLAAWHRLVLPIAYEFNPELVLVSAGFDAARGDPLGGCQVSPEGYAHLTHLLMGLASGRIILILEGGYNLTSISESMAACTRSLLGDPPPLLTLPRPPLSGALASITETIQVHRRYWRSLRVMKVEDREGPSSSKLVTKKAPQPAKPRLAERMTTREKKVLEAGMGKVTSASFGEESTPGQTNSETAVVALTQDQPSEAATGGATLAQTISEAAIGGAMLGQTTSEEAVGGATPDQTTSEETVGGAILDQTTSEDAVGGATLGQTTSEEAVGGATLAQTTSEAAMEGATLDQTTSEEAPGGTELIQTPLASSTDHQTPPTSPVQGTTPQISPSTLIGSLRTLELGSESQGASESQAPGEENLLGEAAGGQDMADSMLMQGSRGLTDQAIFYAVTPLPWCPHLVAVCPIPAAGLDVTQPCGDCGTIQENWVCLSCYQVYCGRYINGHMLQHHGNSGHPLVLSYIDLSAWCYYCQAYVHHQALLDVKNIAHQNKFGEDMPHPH

The next experiment concerns the target T2, HDAC11 (Homo sapiens, UniProt Q96DB2).
T2 sequence (Q96DB2 1-347): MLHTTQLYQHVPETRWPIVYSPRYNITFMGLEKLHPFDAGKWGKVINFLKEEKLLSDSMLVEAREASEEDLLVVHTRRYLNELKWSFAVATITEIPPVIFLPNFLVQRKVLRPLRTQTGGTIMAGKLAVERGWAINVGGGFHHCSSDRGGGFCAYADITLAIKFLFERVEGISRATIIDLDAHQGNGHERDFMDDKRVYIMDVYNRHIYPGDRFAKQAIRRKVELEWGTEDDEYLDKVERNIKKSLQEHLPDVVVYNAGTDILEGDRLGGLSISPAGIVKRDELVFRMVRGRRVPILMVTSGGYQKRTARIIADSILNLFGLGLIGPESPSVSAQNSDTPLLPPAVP

The target in another experiment is T3, HDAC8 (Homo sapiens, UniProt Q9BY41).
T3 sequence (Q9BY41 1-377): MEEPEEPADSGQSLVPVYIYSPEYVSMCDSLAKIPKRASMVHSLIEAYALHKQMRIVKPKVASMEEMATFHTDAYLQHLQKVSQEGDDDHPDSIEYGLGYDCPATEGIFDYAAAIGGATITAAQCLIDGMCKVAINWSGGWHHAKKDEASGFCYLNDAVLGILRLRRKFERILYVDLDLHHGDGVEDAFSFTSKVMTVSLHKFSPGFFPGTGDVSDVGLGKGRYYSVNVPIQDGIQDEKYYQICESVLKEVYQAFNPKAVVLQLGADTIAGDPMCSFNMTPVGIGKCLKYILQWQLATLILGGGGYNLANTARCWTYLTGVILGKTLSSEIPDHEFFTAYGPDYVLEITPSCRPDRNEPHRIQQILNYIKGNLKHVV

In the next experiment the target is T4, HDAC10 (Homo sapiens, UniProt Q969S8).
T4 sequence (Q969S8 1-669): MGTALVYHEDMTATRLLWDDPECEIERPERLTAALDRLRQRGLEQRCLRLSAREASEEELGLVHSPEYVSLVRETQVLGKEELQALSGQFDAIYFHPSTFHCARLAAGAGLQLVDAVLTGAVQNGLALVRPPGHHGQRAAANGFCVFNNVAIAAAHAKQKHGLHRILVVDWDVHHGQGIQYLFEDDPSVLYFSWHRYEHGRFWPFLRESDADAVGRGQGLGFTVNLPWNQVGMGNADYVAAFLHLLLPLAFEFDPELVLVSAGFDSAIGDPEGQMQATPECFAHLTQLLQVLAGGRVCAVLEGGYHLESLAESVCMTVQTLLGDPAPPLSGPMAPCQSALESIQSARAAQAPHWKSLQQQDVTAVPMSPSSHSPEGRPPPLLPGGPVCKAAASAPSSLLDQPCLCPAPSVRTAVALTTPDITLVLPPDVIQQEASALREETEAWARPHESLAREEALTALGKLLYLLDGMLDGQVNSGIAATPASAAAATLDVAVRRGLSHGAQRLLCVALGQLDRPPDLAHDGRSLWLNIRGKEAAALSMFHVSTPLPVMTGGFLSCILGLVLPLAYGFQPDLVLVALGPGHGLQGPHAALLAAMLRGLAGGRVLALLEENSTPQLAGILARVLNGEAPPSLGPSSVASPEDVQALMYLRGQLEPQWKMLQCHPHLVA

Chain of HDAC5 (Q9UQL6 whole entry): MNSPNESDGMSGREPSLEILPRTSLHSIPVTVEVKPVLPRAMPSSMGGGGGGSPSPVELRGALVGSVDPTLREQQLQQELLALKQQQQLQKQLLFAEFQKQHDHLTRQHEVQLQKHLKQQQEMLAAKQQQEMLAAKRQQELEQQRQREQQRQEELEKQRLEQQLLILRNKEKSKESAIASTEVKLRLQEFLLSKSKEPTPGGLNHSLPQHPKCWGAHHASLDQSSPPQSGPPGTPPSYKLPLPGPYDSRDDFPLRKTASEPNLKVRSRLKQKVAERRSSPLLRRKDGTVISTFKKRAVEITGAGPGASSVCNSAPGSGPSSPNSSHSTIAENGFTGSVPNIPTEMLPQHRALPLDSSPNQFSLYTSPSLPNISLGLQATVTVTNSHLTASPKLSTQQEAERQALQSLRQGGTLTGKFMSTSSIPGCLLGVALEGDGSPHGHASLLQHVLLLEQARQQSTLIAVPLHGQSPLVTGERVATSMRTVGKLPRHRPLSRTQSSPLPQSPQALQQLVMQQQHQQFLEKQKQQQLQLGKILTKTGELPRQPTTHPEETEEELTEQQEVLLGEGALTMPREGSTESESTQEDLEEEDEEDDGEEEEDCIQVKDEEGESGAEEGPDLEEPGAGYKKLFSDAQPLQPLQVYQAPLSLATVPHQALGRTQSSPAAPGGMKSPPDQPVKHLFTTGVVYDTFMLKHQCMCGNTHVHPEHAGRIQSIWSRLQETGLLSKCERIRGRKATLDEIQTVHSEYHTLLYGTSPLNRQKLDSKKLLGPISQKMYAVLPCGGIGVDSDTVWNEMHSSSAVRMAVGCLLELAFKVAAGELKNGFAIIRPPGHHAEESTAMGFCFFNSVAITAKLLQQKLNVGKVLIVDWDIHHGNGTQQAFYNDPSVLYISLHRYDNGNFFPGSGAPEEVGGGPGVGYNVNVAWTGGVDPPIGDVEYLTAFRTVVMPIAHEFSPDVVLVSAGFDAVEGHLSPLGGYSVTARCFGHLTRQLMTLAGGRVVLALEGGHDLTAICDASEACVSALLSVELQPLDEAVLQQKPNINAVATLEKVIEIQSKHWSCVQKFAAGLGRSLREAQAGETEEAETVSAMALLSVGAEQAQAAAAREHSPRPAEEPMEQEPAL
Chain of HDAC2 (Q92769 whole entry): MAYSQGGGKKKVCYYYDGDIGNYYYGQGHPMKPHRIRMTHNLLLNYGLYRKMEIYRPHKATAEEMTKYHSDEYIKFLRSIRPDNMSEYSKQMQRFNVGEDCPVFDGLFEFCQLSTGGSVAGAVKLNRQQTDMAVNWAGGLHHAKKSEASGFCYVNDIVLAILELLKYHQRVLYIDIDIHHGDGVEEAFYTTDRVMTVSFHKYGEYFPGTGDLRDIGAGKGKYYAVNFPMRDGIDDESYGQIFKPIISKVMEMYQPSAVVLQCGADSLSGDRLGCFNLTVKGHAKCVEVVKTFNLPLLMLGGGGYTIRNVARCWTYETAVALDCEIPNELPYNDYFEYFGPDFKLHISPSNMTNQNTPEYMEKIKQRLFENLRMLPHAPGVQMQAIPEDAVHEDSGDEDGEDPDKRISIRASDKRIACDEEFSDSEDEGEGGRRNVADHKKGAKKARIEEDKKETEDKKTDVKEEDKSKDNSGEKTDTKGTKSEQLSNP
Chain of HDAC9 (Q9UKV0 whole entry): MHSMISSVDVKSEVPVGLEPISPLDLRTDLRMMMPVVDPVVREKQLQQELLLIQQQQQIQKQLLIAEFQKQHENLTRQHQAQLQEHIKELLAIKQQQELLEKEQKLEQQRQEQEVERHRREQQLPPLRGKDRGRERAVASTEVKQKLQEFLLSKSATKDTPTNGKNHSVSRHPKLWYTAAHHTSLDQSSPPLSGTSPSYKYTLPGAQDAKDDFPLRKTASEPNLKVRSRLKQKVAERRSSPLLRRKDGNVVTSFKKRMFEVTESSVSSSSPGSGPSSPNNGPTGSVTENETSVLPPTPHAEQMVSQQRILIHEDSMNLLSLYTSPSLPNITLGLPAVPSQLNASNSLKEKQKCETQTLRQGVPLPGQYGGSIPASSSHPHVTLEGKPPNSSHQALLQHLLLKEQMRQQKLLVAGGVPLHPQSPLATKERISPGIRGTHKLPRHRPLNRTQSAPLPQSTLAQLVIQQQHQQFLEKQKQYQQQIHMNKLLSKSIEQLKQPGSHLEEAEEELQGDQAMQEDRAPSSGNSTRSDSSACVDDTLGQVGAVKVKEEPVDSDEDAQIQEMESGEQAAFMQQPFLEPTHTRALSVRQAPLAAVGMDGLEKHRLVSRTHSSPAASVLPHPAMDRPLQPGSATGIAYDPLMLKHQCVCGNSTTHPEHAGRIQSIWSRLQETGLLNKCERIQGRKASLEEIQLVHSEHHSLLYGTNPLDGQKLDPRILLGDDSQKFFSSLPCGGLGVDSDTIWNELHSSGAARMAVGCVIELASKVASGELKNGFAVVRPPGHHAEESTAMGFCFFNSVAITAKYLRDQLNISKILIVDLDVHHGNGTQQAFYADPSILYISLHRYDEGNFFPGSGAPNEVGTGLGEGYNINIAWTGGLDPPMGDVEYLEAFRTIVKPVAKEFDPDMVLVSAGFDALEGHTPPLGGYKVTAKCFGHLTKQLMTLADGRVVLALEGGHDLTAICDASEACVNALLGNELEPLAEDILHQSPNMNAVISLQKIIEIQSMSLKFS
Chain of HDAC4 (P56524 whole entry): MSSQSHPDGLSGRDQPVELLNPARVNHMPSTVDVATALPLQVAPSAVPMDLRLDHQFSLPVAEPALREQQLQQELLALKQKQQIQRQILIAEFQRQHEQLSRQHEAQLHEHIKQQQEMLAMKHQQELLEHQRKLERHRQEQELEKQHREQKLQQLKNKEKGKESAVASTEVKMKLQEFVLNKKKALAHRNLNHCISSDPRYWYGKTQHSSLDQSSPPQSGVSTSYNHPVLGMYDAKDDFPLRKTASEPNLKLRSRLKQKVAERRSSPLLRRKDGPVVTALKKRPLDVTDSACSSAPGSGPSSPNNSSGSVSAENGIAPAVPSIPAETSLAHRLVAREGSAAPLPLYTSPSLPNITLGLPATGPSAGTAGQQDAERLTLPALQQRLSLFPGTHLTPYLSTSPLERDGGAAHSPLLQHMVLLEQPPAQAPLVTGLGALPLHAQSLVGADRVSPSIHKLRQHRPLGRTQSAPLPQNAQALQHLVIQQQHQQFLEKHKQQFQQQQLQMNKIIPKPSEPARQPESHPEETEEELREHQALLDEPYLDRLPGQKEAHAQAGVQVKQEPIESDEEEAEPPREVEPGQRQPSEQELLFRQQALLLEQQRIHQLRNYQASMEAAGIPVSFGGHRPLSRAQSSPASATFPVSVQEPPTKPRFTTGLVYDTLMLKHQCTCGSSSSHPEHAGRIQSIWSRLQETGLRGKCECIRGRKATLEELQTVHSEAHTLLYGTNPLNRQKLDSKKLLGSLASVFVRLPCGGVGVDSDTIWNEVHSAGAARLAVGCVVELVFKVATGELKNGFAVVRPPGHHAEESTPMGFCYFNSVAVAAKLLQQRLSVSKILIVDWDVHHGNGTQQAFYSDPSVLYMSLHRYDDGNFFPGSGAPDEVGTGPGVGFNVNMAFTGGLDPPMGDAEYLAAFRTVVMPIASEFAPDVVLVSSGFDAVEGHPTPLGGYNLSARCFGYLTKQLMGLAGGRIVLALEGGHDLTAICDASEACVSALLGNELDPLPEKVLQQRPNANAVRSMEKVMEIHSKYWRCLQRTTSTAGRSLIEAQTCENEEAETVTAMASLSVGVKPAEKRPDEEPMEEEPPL
Chain of HDAC3 (O15379 whole entry): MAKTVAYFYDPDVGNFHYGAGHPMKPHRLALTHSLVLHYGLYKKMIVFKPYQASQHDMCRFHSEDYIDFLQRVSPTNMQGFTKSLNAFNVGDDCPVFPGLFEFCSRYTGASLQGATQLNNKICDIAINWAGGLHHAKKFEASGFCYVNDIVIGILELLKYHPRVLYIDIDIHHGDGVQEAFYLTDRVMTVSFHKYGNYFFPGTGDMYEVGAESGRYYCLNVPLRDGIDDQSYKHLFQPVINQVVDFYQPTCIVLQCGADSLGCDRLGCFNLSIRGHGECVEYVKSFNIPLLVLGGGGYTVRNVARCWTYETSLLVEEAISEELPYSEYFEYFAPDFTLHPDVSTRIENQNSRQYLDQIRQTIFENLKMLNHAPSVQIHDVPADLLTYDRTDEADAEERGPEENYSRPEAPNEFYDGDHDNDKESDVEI
Chain of HDAC3 (Q9Y618 395-489 partner limits assumed): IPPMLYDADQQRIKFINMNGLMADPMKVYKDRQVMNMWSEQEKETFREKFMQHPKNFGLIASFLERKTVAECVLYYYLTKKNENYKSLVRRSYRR
Chain of HDAC1 (Q13547 whole entry): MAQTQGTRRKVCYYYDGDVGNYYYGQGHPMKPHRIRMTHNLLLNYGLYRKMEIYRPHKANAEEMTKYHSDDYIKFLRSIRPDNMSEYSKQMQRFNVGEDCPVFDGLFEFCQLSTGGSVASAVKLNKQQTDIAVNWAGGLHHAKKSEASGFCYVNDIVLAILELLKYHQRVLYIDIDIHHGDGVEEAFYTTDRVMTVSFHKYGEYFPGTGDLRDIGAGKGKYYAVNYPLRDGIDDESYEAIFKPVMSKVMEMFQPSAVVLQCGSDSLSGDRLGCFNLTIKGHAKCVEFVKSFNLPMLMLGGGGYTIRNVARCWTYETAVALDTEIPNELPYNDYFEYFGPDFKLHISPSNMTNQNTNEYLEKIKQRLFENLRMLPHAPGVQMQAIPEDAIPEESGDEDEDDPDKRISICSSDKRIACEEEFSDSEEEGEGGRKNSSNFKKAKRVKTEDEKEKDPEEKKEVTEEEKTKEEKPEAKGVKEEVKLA

As for `COc1cc(CN2CCCCc3ccccc32)ccc1C(=O)NO` [15b, N-Hydroxy2-methoxy-4-((2,3,4,5-tetrahydro-1H-benzo[b]azepin-1-yl)methyl)benzamide], the IC50 against HDAC1 was over 10 µM; against HDAC6, 4.16 µM; on HDAC4 it was over 10 µM; against HDAC9 it was over 10 µM; against HDAC2 it was over 10 µM; at HDAC11 it was 3.52 µM. For the same molecule, the IC50 was over 10 µM against HDAC3, 2.06 µM against HDAC8, over 10 µM against HDAC5 and over 10 µM on HDAC10.
